Test results reported in patent publication US8969413B2.
Where two headings read alike, the source gives them in different places.

Legend:
mGAT1 = biological target: T1, mGAT1 (Mus musculus, UniProt P31648); experiment: [3H]GABA uptake at mouse GABA transporters, HEK-293 cells; assay type: cell-based
T1 construct: expressed in transfected cells
Protocol: (§1) Cortical neurons were cultured essentially as previously described by removing the neopallium of 15-day old NMRI embryos by dissection followed by mild trypsination. Hertz E, Yu A C H, Hertz L, Juurlink B H J and Schousboe A. Preparation of Primary Cultures of Mouse Cortical Neurons, in A Dissection and Tissue Culture Manual of the Nervous System (Shahar A, de Vellis J, Vernadakis A and Haber B eds) pp 183-186, Alan R. Liss, Inc., New York, 198. The neurons were cultured in 10% fetal calf serum and, after 48 h, cytosine arabinoside was added to a final concentration of 20 μM to prevent glial proliferation. Four cultures of stably transfected Human Embryonic Kidney (HEK)-293 cells expressing mGAT1-4 were prepared by the method previously reported. […] J Pharmacol Exp Ther. 2002, 302, 636-644 The stable cell lines are under the selection pressure of blasticidin-S at 5 μg/mL. Determinations of the IC50 values were conducted as described earlier. […] Radioactivity was measured using Microscint™ 20 scintillation fluid (PerkinElmer) and a Packard TopCount microplate scintillation counter.

mGAT2 = biological target: T2, mGAT2 (Mus musculus, UniProt P31651); experiment: as above; assay type: cell-based
T2 construct: expressed in transfected cells
Protocol: as §1

mGAT3 = biological target: T3, mGAT3 (Mus musculus, UniProt P31649); experiment: as above; assay type: cell-based
T3 construct: expressed in transfected cells
Protocol: as §1

mGAT4 = biological target: T4, mGAT4 (Mus musculus, UniProt P31650); experiment: as above; assay type: cell-based
T4 construct: expressed in transfected cells
Protocol: as §1

cortical astrocytes = experiment: [3H]GABA uptake in cultured cortical astrocytes; assay type: cell-based; settings: Mus musculus, Astrocyte
Protocol: (§2) Cortical astrocytes were cultured essentially as previously described. Hertz L, Juurlink B H J, Hertz E, Fosmark H and Schousboe A. Preparation of Primary Cultures of Mouse (Rat) Astrocytes, in A Dissection and Tissue Culture Manual of the Nervous System (Shahar A, de Vellis J, Vernadakis A and Haber B eds) pp 105-108, Alan R. Liss, Inc., New York, 1989 The neopallium was removed from new born NMRI mice (Taconic, Denmark) and passed through an 80 μm nylon sieve and cultured in modified Dulbecco's modified Eagle's medium with fetal calf serum. The calf serum was lowered from 20% to 10% over three weeks, and finally the astrocytes were allowed to differentiate using 0.25 mM dibutyryl cyclic AMP during the last week of growth.
Cortical neurons were cultured essentially as previously described by removing the neopallium of 15-day old NMRI embryos by dissection followed by mild trypsination. Hertz E, Yu A C H, Hertz L, Juurlink B H J and Schousboe A. Preparation of Primary Cultures of Mouse Cortical Neurons, in A Dissection and Tissue Culture Manual of the Nervous System (Shahar A, de Vellis J, Vernadakis A and Haber B eds) pp 183-186, Alan R. Liss, Inc., New York, 198. […] Radioactivity was measured using Microscint™ 20 scintillation fluid (PerkinElmer) and a Packard TopCount microplate scintillation counter.

[1] = system: GABA transporters in neurons, astrocytes, or mammalian cells recombinantly expressing human or mouse transporter subtypes; experiment: [3H]GABA uptake, all transporter systems; assay type: cell-based; settings: 1 mM concentration
Protocol: tsA201 cells were cultured in GlutaMAX-I DMEM supplemented with 10% fetal bovine serum, penicillin (100 U/ml), and streptomycin (100 μg/ml) at 37° C. in a humidified atmosphere of 95% air and 5% CO2. […] J. Biol. Chem. 2007, 282, 19331-19341. […] Quantification was performed by using Microscint™ 20 scintillation fluid (PerkinElmer) and a Packard TopCount microplate scintillation counter.
as §2, with “The calf serum was lowered from 20% to 10% over three weeks, and finally the astrocytes were allowed to differentiate using 0.25 mM dibutyryl cyclic AMP during the last week of growth.” left out
Cortical neurons were cultured essentially as previously described by removing the neopallium of 15-day old NMRI embryos by dissection followed by mild trypsination. […] Radioactivity was measured using Microscint™ 20 scintillation fluid (PerkinElmer) and a Packard TopCount microplate scintillation counter.

human ρ1 GABAC receptors = biological target: T5, human ρ1 GABAC receptors (Homo sapiens, UniProt P24046); experiment: GABAC receptor two-electrode voltage clamp in Xenopus laevis oocytes; assay type: cell-based
T5 construct: expressed in transfected cells; host or cells: Xenopus laevis oocytes injected with ρ1 mRNA
Protocol: Human ρ1 cDNA encapsulated in pcDNA1.1 was linearized with Not1. Linearized cDNA was transcribed to mRNA using the T7 “mMESSAGE mMACHINE” kit (Ambion Inc. Austin, Tex., USA) as previously described. […] Eur. J. Pharmacol. 2001, 430, 185-192. GABAC receptor activity assays were performed in oocytes harvested from Xenopus laevis (housed in the Department of Veterinary Science at the University of Sydney) and defolliculated. The oocytes were stored in ND96 solution (in mM) NaCl (96), KCl (2), MgCl2 (1), CaCl2 (1.8), HEPES (hemi-Na salt; 5) supplemented with sodium pyruvate (2.5), theophylline (0.5), and 50 μg/ml^−1 gentamycin for 2-5 days post-injection.
Electrophysiological methods were performed as previously described. Hertz L, Juurlink B H J, Hertz E, Fosmark H and Schousboe A. Preparation of Primary Cultures of Mouse (Rat) Astrocytes, in A Dissection and Tissue Culture Mnual of the Nervous System (Shahar A, de Vellis J, Vernadakis A and Haber B eds) pp 105-108, Alan R. Liss, Inc., New York, 1989 Stage V-VI oocytes were injected with 10 ng 50 nl^−1 of ρ1 mRNA and then stored at 16° C. Recordings of receptor activity were obtained for 2-5 days by a two-electrode voltage clamp by means of a Geneclamp 500 amplifier (Axon Instruments Inc., Foster City, Calif.), a MacLab 2e recorder (AD Instruments, Sydney, NSW), and Chart version 3.6.3 program. Oocytes were voltage clamped at −60 mV, and the preparation was continually perfused with ND96 solution at room temperature. […] Compound 2 (CPP-115) was tested on three oocytes from at least two harvests.

Sprague-Dawley rats = settings: for time spent in chamber, first printed value / time spent in chamber, second printed value: 1.0 mg/kg i.p.
[2] = cocaine/saline+compound pairings, cocaine 20 mg/kg
[3] = saline/Compound 2 (CPP-115) pairings

T5 sequence (P24046 21-479 limits assumed): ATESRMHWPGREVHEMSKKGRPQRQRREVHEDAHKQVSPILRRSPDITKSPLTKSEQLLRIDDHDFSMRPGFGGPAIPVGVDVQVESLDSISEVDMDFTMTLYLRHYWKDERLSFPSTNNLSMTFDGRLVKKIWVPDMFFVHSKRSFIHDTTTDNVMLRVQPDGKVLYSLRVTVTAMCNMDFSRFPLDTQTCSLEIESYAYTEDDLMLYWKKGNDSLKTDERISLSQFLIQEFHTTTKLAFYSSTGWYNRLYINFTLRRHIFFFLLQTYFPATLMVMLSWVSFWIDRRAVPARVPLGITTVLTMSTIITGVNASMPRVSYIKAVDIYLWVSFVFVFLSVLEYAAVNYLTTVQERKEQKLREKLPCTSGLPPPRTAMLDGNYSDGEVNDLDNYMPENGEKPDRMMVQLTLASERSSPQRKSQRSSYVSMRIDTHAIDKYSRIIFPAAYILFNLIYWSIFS
T3 sequence (P31649 whole entry): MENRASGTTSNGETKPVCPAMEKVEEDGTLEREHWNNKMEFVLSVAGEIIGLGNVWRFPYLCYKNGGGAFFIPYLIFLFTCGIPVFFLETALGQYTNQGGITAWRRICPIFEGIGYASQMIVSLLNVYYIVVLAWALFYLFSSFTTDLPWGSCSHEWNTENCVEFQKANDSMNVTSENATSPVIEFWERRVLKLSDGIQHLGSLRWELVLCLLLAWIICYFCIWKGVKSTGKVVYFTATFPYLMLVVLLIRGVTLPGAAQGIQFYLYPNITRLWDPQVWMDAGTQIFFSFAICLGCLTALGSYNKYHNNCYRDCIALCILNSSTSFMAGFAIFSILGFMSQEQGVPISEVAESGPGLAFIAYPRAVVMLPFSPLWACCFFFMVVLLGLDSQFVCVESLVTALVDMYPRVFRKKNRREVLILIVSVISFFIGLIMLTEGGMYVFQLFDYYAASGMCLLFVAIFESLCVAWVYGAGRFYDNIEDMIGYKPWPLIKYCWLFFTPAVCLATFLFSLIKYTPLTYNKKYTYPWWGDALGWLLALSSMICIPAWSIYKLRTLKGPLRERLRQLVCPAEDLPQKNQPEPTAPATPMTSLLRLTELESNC
T4 sequence (P31650 whole entry): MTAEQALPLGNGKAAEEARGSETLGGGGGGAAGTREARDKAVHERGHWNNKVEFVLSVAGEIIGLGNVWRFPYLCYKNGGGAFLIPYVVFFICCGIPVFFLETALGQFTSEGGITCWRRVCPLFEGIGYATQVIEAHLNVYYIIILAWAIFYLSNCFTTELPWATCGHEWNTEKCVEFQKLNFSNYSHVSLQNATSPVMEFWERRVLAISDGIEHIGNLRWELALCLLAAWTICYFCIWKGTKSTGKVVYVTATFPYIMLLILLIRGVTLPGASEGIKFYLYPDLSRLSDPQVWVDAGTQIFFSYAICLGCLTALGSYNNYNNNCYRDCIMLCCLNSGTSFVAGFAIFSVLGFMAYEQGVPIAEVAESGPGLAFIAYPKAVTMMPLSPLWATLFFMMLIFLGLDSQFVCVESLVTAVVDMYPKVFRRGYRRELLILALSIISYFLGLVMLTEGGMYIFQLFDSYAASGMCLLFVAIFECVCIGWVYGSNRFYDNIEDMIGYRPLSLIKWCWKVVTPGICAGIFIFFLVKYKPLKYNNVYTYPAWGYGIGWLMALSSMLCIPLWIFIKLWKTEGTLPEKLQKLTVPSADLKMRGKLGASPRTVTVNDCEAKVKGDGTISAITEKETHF
T2 sequence (P31651 whole entry): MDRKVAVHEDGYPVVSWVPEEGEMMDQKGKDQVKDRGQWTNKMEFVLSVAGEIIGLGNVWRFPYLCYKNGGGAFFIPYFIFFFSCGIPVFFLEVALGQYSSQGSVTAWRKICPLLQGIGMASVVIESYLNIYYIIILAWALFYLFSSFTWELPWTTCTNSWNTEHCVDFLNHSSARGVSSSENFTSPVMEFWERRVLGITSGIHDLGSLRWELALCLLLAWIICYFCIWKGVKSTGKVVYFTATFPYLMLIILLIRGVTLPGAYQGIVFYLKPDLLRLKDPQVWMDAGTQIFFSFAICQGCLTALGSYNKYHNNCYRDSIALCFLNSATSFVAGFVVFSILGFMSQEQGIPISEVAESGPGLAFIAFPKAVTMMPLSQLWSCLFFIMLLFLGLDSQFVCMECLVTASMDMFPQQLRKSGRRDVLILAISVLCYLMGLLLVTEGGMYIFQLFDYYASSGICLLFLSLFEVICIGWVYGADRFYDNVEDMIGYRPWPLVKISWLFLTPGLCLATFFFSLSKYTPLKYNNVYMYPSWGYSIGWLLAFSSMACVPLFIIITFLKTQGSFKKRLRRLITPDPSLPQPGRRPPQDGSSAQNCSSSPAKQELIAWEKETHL

Which results are given for `N[C@H]1C[C@@H](C(=O)O)CC1=C(F)F` [CPP-115]?
IC50 (mGAT1): > 1000 µM; IC50 (mGAT2): > 1000 µM; IC50 (mGAT3): > 1000 µM; IC50 (mGAT4): > 1000 µM; IC50 (cortical astrocytes): > 1000 µM; inhibitory activity at GABA transporters [1]: no inhibitory activity; effect as agonist or antagonist at ρ1 GABAC receptors (human ρ1 GABAC receptors; 100 μM): no effect as an agonist or antagonist; activation of current in oocytes (human ρ1 GABAC receptors; 100 μM alone, clamped at −60 mV): did not activate a current; reduction of the GABA response on co-application (human ρ1 GABAC receptors; 100 μM co-applied with GABA 1 μM, p>0.05, n=3): did not significantly reduce the GABA response; expression of cocaine-induced CPP (Sprague-Dawley rats; 1.0 mg/kg i.p. 2.5 h before test, cocaine 20 mg/kg, listed as 2): blocked the expression of cocaine-induced CPP; effect on cocaine-induced CPP relative to vigabatrin (Sprague-Dawley rats; 1.0 mg/kg versus vigabatrin 300 mg/kg): 300 times; time spent in chamber, first printed value (Sprague-Dawley rats; [2]): 7.9 ± 1.5 min; time spent in chamber, second printed value (Sprague-Dawley rats; [2]): 7.1 ± 1.9 min; time spent in chamber, first printed value (Sprague-Dawley rats; [3]): 8.1 ± 3.2 min; time spent in chamber, second printed value (Sprague-Dawley rats; [3]): 6.9 ± 3.9 min
